Read-outs that look alike come from different tables or passages of the source.
Columns and labels:
[1] = test system: Vero E6 cells; assay: Cytotoxicity test on Vero E6 cells (CCK8); type: cell-based
Protocol: (§1) In this embodiment, the half toxicity concentration of each embodiment on Vero E6 cells was determined by CCK8 kit analysis (CC50).

[2] = test system: 2019 novel coronavirus (SARS-CoV-2) original strain; assay: Replication inhibitory activity against SARS-CoV-2 original strain in Vero E6 cells (qRT-PCR); type: cell-based; conditions: Severe acute respiratory syndrome coronavirus 2, Vero C1008; Vero E6 cells, MOI 0.01, 24 h p.i., viral copy number by qRT-PCR; read-out: Inhibition against viral replication of the original strain EC50
[3] = Cytotoxicity test on Vero E6 cells (CCK8); type: cell-based; conditions: African green monkey; Vero E6 cells, CCK8 kit
Protocol: as §1

[4] = target: T1, hERG potassium channel (Homo sapiens, UniProt Q12809); assay: hERG potassium channel whole-cell membrane clamp in CHO cells; type: cell-based; conditions: CHO cells stably expressing hERG, whole-cell membrane clamp
T1 construct: expressed in transfected cells
T1 sequence (Q12809 whole entry): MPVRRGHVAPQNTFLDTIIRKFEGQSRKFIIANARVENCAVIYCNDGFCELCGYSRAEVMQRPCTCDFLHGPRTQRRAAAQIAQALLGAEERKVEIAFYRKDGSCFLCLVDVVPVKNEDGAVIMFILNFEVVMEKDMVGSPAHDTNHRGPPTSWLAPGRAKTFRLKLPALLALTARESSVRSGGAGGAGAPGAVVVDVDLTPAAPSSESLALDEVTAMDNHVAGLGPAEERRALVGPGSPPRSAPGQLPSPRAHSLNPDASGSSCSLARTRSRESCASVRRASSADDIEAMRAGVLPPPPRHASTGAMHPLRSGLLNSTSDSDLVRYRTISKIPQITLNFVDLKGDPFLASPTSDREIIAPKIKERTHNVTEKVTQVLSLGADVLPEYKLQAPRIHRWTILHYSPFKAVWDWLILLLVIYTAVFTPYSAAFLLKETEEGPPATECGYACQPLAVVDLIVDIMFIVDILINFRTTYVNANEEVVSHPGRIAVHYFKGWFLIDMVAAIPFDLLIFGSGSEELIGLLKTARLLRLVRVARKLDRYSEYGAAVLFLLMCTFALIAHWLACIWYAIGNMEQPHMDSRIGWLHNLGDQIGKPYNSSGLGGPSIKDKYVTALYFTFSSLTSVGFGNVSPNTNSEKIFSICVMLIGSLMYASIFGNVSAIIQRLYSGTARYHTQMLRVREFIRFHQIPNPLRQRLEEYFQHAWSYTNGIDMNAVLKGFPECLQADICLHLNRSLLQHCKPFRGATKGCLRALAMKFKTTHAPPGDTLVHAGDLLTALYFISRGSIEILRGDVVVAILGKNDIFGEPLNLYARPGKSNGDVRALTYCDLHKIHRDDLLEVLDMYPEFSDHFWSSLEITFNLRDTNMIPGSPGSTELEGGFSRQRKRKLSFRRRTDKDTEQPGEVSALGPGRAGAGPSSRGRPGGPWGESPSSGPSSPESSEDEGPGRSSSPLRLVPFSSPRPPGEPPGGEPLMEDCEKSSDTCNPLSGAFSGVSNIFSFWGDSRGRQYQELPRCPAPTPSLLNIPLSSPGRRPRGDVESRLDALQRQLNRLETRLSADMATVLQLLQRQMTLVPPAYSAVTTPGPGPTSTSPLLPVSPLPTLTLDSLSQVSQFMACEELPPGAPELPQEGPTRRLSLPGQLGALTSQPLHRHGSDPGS
Protocol: Compounds were given for at least 1 min for each tested concentration, and at least 2 cells (n≥2) were tested per concentration.

[5] = target: novel coronavirus envelope protein (2-E) ion channel (Severe acute respiratory syndrome coronavirus 2, UniProt P0DTC4); assay: Novel coronavirus envelope protein (2-E) ion channel activity test, planar lipid bilayer (BLM); type: biochemical, SARS-CoV-2; conditions: room temperature, 1, 10, 50, 100 μM, read-out: Inhibition against 2-E ion channels IC50
Chain of novel coronavirus envelope protein (2-E) ion channel (P0DTC4 whole entry, looked up): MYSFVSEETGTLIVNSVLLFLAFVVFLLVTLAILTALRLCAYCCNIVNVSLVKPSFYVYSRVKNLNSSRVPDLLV

[6] = test system: Raw 264.7 cells; assay: Cell viability in LPS-induced inflammation model of Raw 264.7 cells (CCK-8); type: cell-based; conditions: 1 μg/ml LPS, 1 μM compound, 16 hours
Protocol: In this example, the effect of the compounds of the present invention on the inflammation level of the LPS-induced inflammation model of Raw 264.7 cells was analyzed by cell viability in combination with inflammatory factors; cell viability was analyzed by CCK-8 assay; and mRNA expression levels of inflammation-related indicators were detected by a real-time quantitative PCR (Q-PCR) method. Raw 264.7 cells were purchased from ATCC; CCK-8 kit was purchased from Meilunbio, item no. MA0218-3; LPS was purchased from Sigma, item no. L2630.
(§2) Experimental methods: first, 8000 cells/well Raw 264.7 cells were placed in 96-well plates and incubated overnight. On the second day, 0.1% DMSO was added to the control cells, 1 μg/ml LPS as well as 0.1% DMSO was added to the model group, 1 μg/ml LPS as well as 1 μM of the compounds (oxyacanthine hydrochloride (oxy), 1, 2, tetrandrine (tet), 3, 4, 6, 58) was added to the treatment group, and the 96-well plates were sterilized and incubated in a constant temperature incubator for 16 hours. Finally, the viability of the cells was detected using the CCK-8 kit.

[7] = test system: HCoV OC43 virus; assay: Inhibition against HCoV OC43 virus replication; type: cell-based, human coronavirus HCoV OC43; conditions: Betacoronavirus 1, OC43
[8] = test system: ALM12 hepatocytes; assay: Anti H2O2-induced necrotic injury assay in ALM12 hepatocytes (microscopy, CCK-8); type: cell-based; conditions: 2 mM H2O2, 1 μM compound, 3 hours, microscope and CCK-8
Protocol: In this example, the effect of the compounds of the present invention on the level of necrotic injury induced by H2O2 in ALM12 hepatocytes was analyzed by microscopic morphological observations, cell viability in combination with cell death-associated molecules. Cell viability was analyzed by CCK-8 assay. ALM12 cells were cultured in 1640 medium (gibco, c11995500BT)+10% FBS (gibco, 10099141C) in a constant temperature incubator at 37° C., 5% CO2; the CCK-8 kit was purchased from Meilunbio, item no. MA0218-3; H2O2 was purchased from Sinopharm Chemical Reagent Co. item no. 10011208.
Experimental methods: first, 8000 cells/well ALM12 cells were placed in 96-well plates and incubated overnight. On the second day, 0.1% DMSO was added to the control cells, 2 mM H2O2 as well as 0.1% DMSO was added to the model group, 2 mM H2O2 as well as 1 μM of the compounds (oxy, 1, 2, tet, 3, 4, 6, 58) was added to the treatment group, and the 96-well plates were sterilized and incubated in a constant temperature incubator for 3 hours. Finally, cell injury and growth were observed using a microscope; the viability of the cells was detected by CCK-8 kit.

[9] = test system: Raw 264.7 cells; assay: Cell viability in TNF-α induced inflammation model of Raw 264.7 cells (CCK-8); type: cell-based; conditions: 10 ng/ml TNF-α, 1 μM compound, 16 hours
Protocol: In this embodiment, the effect of compounds on TNF-α-induced inflammation levels in Raw 264.7 cells was analyzed by cell viability combined with inflammatory factor expression levels; cell viability was analyzed by CCK-8 assay; and mRNA expression levels of inflammation-associated indicators were detected by real-time quantitative PCR (Q-PCR) method. Raw 264.7 cells were purchased from ATCC, CCK-8 kit was purchased from Meilunbio, item number MA0218-3, TNF-α was purchased from Merck, item no. GF314.
as §2, with “10 ng/ml TNF-α” for “1 μg/ml LPS”

## COc1ccc2cc1Oc1ccc(cc1)C[C@H]1c3cc(c(OC)cc3CCN1C)Oc1c(OC)c(OC)cc3c1[C@H](C2)N(C)CC3 [tetrandrine, reference compound]
[1]
  cytotoxicity (background statement): high cytotoxicity

## COc1ccc(NC(=O)c2ccc3cc2Oc2ccc(cc2)C[C@H]2c4c(cc(OC)c(OC)c4Oc4cc5c(cc4OC)CCN(C)[C@@H]5C3)CCN2C)cc1 [Compound 52]
[2]
  EC50: 0.1 to 1 µM
[3]
  IC50: 10 to 30 µM

## COc1cc2c3cc1Oc1c(OC)c(OC)cc4c1[C@H](Cc1ccc(cc1)Oc1cc(ccc1C(=O)NC15CC6CC(CC(C6)C1)C5)C[C@H]3N(C)CC2)N(C)CC4 [Compound 49]
[2]
  EC50: 0.1 to 1 µM
[3]
  IC50: 5 to 10 µM

## COc1cc2c3cc1Oc1c(OC)c(OC)cc4c1[C@H](Cc1ccc(cc1)Oc1cc(ccc1C(=O)NC1CCCC1)C[C@H]3N(C)CC2)N(C)CC4 [Compound 22]
[2]
  EC50: 0.5 to 1.5 µM
[3]
  IC50: 10 to 30 µM

## COc1cc2c3cc1Oc1c(OC)c(OC)cc4c1[C@H](Cc1ccc(cc1)Oc1cc(ccc1C(=O)NC(C)C)C[C@H]3N(C)CC2)N(C)CC4 [Compound 48]
[2]
  EC50: 0.1 to 1 µM
[3]
  IC50: 10 to 30 µM

## COc1cc2c3cc1Oc1c(OC)c(OC)cc4c1[C@H](Cc1ccc(cc1)Oc1cc(ccc1C(C)=O)C[C@H]3N(C)CC2)N(C)CC4 [Compound 19]
[2]
  EC50: 0.5 to 1.5 µM
[3]
  IC50: 30 to 50 µM

## COc1cc2c3cc1Oc1c(OC)c(OC)cc4c1[C@H](Cc1ccc(cc1)Oc1cc(ccc1C(=O)NCCOCCO)C[C@H]3N(C)CC2)N(C)CC4 [Compound 55]
[4]
  IC50: > 40 µM
[2]
  EC50: 1 to 5 µM
[3]
  IC50: > 100 µM

## COc1cc2c3cc1Oc1c(OC)c(OC)cc4c1[C@H](Cc1ccc(cc1)Oc1cc(ccc1C(=O)NC1CCC1)C[C@H]3N(C)CC2)N(C)CC4 [Compound 50]
[4]
  IC50: 4.5 µM
[2]
  EC50: 0.1 to 1 µM
[3]
  IC50: 30 to 50 µM

## COc1cc2c3cc1Oc1c(OC)c(OC)cc4c1[C@H](Cc1ccc(cc1)Oc1cc(ccc1C(=O)C1CC1)C[C@H]3N(C)CC2)N(C)CC4 [Compound 54]
[2]
  EC50: 1 to 5 µM
[3]
  IC50: 10 to 30 µM

## COc1cc2c3cc1Oc1c(OC)c(OC)cc4c1[C@H](Cc1ccc(cc1)Oc1cc(ccc1C(=O)O)C[C@H]3N(C)CC2)N(C)CC4 [Compound 7]
[4]
  IC50: > 40 µM
[5]
  IC50: 10 to 30 µM
[3]
  IC50: > 50 µM

## COc1cc2c3cc1Oc1c(OC)c(OC)cc4c1[C@H](Cc1ccc(cc1)Oc1cc(ccc1C)C[C@H]3N(C)CC2)N(C)CC4 [Compound 35]
[2]
  EC50: 1 to 5 µM
[3]
  IC50: 10 to 30 µM

## COc1cc2c3cc1Oc1c(OC)c(OC)cc4c1[C@H](Cc1ccc(cc1)Oc1cc(ccc1C(C)O)C[C@H]3N(C)CC2)N(C)CC4 (stereo partly shown) [Compound 40]
[2]
  EC50: 0.1 to 1 µM
[3]
  IC50: 30 to 50 µM

## COc1cc2c3cc1Oc1c(OC)c(OC)cc4c1[C@H](Cc1ccc(cc1)Oc1cc(ccc1C#N)C[C@H]3N(C)CC2)N(C)CC4 [Compound 1]
[6]
  cell viability in LPS-induced inflammation model: did not affect cell viability
[4]
  IC50: 6.4 µM
[5]
  IC50: < 10 µM
[7]
  EC50: 4.2 µM
[8]
  alleviation of H2O2-induced ALM12 hepatocyte injury: significantly alleviated
[9]
  cell viability in TNF-α-induced inflammation model: did not affect cell viability
[2]
  EC50: 0.1 to 1 µM
[3]
  IC50: 10 to 30 µM

## COc1cc2c3cc1Oc1c(OC)c(OC)cc4c1[C@@H](Cc1ccc(O)c(c1)Oc1ccc(cc1)C[C@@H]3N(C)CC2)N(C)CC4 [berbamine, reference compound]
[1]; inventors' screening of natural products
  cytotoxicity (background statement): high cytotoxicity

## COc1cc2c3cc1Oc1c(OC)c(OC)cc4c1[C@H](Cc1ccc(cc1)Oc1cc(ccc1C(=O)Nc1ccccc1)C[C@H]3N(C)CC2)N(C)CC4 [Compound 45]
[4]
  IC50: > 20 µM
[5]
  IC50: < 10 µM
[2]
  EC50: 1 to 5 µM
[3]
  IC50: 10 to 30 µM

## C=C(C)c1ccc2cc1Oc1ccc(cc1)C[C@H]1c3c(cc(OC)c(OC)c3Oc3cc4c(cc3OC)CCN(C)[C@@H]4C2)CCN1C [Compound 34]
[5]
  IC50: < 10 µM
[2]
  EC50: 0.5 to 1.5 µM
[3]
  IC50: 10 to 30 µM

## COc1cc2c3cc1Oc1c(OC)c(OC)cc4c1[C@H](Cc1ccc(cc1)Oc1cc(cc5[nH]c(=O)oc15)C[C@H]3N(C)CC2)N(C)CC4 [Compound 17]
[2]
  EC50: 0.1 to 1 µM
[3]
  IC50: 10 to 30 µM

## CNC(=O)c1ccc2cc1Oc1ccc(cc1)C[C@H]1c3c(cc(OC)c(OC)c3Oc3cc4c(cc3OC)CCN(C)[C@@H]4C2)CCN1C [Compound 5]
[4]
  IC50: 9.4 µM
[2]
  EC50: 1 to 10 µM
[1]; Vero E6 cells
  cytotoxicity on Vero E6 cells compared with oxyacanthine hydrochloride: weaker cytotoxicity than oxyacanthine hydrochloride
[3]
  IC50: > 50 µM

## COc1cc2c3cc1Oc1c(OC)c(OC)cc4c1[C@H](Cc1ccc(cc1)Oc1cc(ccc1C1CC1)C[C@H]3N(C)CC2)N(C)CC4 [Compound 38]
[2]
  EC50: 1 to 5 µM
[3]
  IC50: 10 to 30 µM

## COc1cc2c3cc1Oc1c(OC)c(OC)cc4c1[C@H](Cc1ccc(cc1)Oc1cccc(c1)C[C@H]3N(C)CC2)N(C)CC4 [Compound 33]
[4]
  IC50: > 40 µM
[7]
  EC50: 4.1 µM
[2]
  EC50: 0.1 to 1 µM
[3]
  IC50: 10 to 30 µM

## COc1cc2c3cc1Oc1c(OC)c(OC)cc4c1[C@H](Cc1ccc(cc1)Oc1cc(ccc1CO)C[C@H]3N(C)CC2)N(C)CC4 [Compound 9]
[5]
  IC50: 10 to 30 µM
[7]
  EC50: 3 µM
[2]
  EC50: 0.5 to 1.5 µM
[3]
  IC50: > 50 µM

## COc1cc2c3cc1Oc1c(OC)c(OC)cc4c1[C@H](Cc1ccc(cc1)Oc1cc(ccc1C(=O)Nc1cccnc1)C[C@H]3N(C)CC2)N(C)CC4 [Compound 51]
[2]
  EC50: 0.1 to 1 µM
[3]
  IC50: 10 to 30 µM

## CCCCCNC(=O)c1ccc2cc1Oc1ccc(cc1)C[C@H]1c3c(cc(OC)c(OC)c3Oc3cc4c(cc3OC)CCN(C)[C@@H]4C2)CCN1C [Compound 37]
[4]
  IC50: > 20 µM
[5]
  IC50: < 10 µM
[2]
  EC50: 1 to 5 µM
[3]
  IC50: 10 to 30 µM
